Experimental data as given in US20190151277A1, “USES OF BIOACTIVE LIPIDS” (NESTEC S.A., priority 2014, published 2019).

Tests used:
Assay type in all cases: cell-based
human islets [1] = experiment: Acute insulin secretion assay with human islets from a lean non-diabetic donor; conditions: 2 mM and 20 mM glucose, 15-deoxy-Δ12,14-PGJ2-2-G at 250 μM
Protocol: Insulin secretion assay was performed in low glucose (2 mM) and high glucose (20 mM) conditions with human islets from a lean non-diabetic donor. […] Both bioactive lipids improved glucose stimulated insulin release acutely. The results are expressed as ng secreted insulin per 10 islets.

mouse islets = experiment: GSIS in mouse islets after 72 hours treatment; conditions: 72 hours at 50 μM, 2 mM and 20 mM glucose
Protocol: (§1) After PGD2G treatment, glucose stimulated insulin release was measured in low glucose (2 mM) and high glucose (20 mM) conditions in KRB solution. The insulin release is expressed as released from the total content of insulin in Ins1E cells and mouse islets.

Ins1E cells = experiment: GSIS in Ins1E cells after 72 hours treatment; conditions: 72 hours at 50 μM, 2 mM and 20 mM glucose
Protocol: as §1

[2] = Acute glucose stimulated insulin release normalized to total protein content; conditions: 2 mM and 20 mM glucose, 470 μM, 2.3 nM, 230 nM bioactive lipid
Protocol: Glucose stimulated insulin release was measured in low glucose (2 mM) and high glucose (20 mM) in the presence of various concentrations (470 μM, 2.3 nM, 230 nM) of the bioactive lipid. The bioactive lipid improved glucose stimulated insulin release particularly at concentrations from 2.5 nM to 250 nM. The result are presented as insulin release normalized to total protein content.

human islets [3] = experiment: Beta cell function and incretin response in human islets from donors; conditions: lean type 2 diabetic and non-diabetic obese donors, 50 μM, 72 hours
Protocol: Glucose stimulated insulin release was measured in low glucose (2 mM), high glucose (20 mM) and high glucose (20 mM)+0.1 uM Exendin4

human islets [4] = experiment: Glucose stimulated insulin release in human islets after cytokine-induced dysfunction; conditions: human islets of three donors, 50 μM 72 hours, cytokine mix last 48 hours
Protocol: During the last 48 hours, the cytokine mix was added (IL1beta 10 ng/ml, TNF alpha 25 ng/ml and INFgamma 10 ng/ml). Glucose stimulated insulin release was measured in low glucose (2 mM) and high glucose (20 mM) conditions. The bioactive lipid was able to improve glucose stimulated insulin release after cytokine-induced dysfunction.

human H716 cells = experiment: GLP-1 secretion assay in human H716 cells; conditions: 0.23 nM to 2.3 nM
Protocol: GLP-1 secretion assay was performed using human H716 cells in the presence of various concentration of the bioactive lipid from 0.23 nM to 2.3 nM.

Row | Compound | insulin secretion (ng secreted insulin per 10 islets) (human islets [1]) | glucose stimulated insulin release (of total insulin content) (mouse islets) | glucose stimulated insulin release (of total insulin content) (Ins1E cells) | insulin release normalized to total protein content [2] | beta cell function (glucose stimulated insulin release) (human islets [3]) | incretin response (20 mM glucose + 0.1 uM Exendin4) (human islets [3]) | glucose stimulated insulin release after cytokine-induced dysfunction (human islets [4]) | GLP1 release normalized to total protein content (human H716 cells)
1 | CCCCC/C=C/C=C1/C(=O)C=C[C@@H]1C/C=C\CCCC(=O)OC(CO)CO [15-deoxy-Δ12,14-PGJ2-2-G, 11-oxo-5Z,9,12E,4E-prostatetraenoic acid-2-glycerol ester] | increased insulin secretion both with and without the presence of a white adipose tissue (WAT) fraction | – | – | – | – | – | – | –
2 | CCCCC[C@H](O)/C=C/[C@H]1C(=O)C[C@H](O)[C@@H]1C/C=C\CCCC(=O)OCC(O)CO (stereo partly drawn) [PGD2G, 9a, 15S-dihydroxy-11-oxo-5Z,13E-prostadienoic acid 1-glyceryl ester] | also increased insulin secretion compared to control tissues | increased insulin secretion | increased insulin secretion | acutely stimulated insulin secretion upon stimulation with glucose | improved beta cell function | improved | protected human islets against cytokine induced dysfunction | increased GLP1 secretion
